Legend:
[1] = target: T1, hepatic lipase (HL) (Homo sapiens, UniProt P11150); assay: Hepatic lipase (HL) enzymatic assay, fluorescent substrate A10070 in DMPG vesicles; format: biochemical; conditions: HL partially purified from conditioned media of COS cells; compound preincubated 30 min at 37° C; read-out: HL IC50
T1 construct: made in house; host or cells: COS cells (conditioned medium, partially purified)
T1 sequence (P11150 23-499): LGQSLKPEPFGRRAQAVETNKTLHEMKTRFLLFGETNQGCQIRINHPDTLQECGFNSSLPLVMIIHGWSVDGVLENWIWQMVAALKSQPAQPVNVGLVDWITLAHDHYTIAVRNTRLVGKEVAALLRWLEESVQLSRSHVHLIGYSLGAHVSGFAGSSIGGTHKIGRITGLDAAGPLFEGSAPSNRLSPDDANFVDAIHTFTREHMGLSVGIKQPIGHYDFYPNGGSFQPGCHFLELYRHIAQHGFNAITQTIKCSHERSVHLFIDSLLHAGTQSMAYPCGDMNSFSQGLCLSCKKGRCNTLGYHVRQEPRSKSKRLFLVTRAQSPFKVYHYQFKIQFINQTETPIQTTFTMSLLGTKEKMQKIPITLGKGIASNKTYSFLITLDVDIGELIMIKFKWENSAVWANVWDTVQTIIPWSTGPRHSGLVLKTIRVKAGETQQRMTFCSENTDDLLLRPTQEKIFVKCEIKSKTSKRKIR
Procedure, shortened: (§1)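 Vesicles prepared: A10070 dried with DMPG, resuspended in HEPES pH 8.0/NaCl/EDTA, sonicated on ice. Enzyme incubated with compound 30 min at 37° C. Reaction started with 1:10 diluted vesicles. Fluorescence (490/530 nm) followed 60 min; slope from 300–900 secs gives rate.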

[2] = target: T2, Endothelial lipase (EL) (Homo sapiens, UniProt Q9Y5X9); assay: Endothelial lipase (EL) enzymatic assay, fluorescent substrate A10070 in DMPG vesicles; format: biochemical; conditions: EL from conditioned media of HT-1080 cells; compound preincubated 30 min at 37° C; read-out: EL IC50
T2 construct: HT-1080 cells that were transformed using RAGE technology (Athersys) to overexpress endogenous EL; endogenous in cells; conditioned medium used
T2 sequence (Q9Y5X9 21-500): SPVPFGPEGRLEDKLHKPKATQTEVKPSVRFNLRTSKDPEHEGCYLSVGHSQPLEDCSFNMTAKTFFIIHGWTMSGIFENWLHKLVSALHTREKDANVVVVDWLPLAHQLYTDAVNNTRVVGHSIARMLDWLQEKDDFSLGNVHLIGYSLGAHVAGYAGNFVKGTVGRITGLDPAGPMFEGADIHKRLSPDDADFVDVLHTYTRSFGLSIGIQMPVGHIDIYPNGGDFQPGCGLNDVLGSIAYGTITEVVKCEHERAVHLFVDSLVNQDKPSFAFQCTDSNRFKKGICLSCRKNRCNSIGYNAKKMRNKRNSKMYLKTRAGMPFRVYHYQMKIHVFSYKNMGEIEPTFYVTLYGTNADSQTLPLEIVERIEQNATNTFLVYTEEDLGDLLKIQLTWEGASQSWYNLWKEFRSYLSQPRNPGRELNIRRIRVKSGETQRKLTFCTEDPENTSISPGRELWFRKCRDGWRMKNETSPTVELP
Procedure, shortened: as §1

Row | IC50 [1] [µM] | IC50 [2] [µM] | Structure (SMILES)
1 | 0.56 | < 0.01 | C=CCS(=O)(=O)C(c1nnc(CNS(N)(=O)=O)o1)c1nc2ccc(-c3ccc(C(=O)N4CCOCC4)cc3)cc2s1 (stereo not drawn) [Example 150, N-((5-((allylsulfonyl)(6-(4-(4-morpholinylcarbonyl)phenyl)-1,3-benzothiazol-2-yl)methyl)-1,3,4-oxadiazol-2-yl)methyl)sulfamide]
2 | < 0.01 | < 0.01 | COCCS(=O)(=O)C(c1nnc(CNS(N)(=O)=O)o1)c1nc2ccc(-c3cc(F)cc(Cl)c3)cc2s1 (stereo not drawn) [Example 151, N-((5-((6-(3-chloro-5-fluorophenyl)-1,3-benzothiazol-2-yl)((2-methoxyethyl)sulfonyl)methyl)-1,3,4-oxadiazol-2-yl)methyl)sulfamide]
3 | 0.017 | 0.019 | COCCS(=O)(=O)C(c1nnc(CNS(=O)(=O)NC(=O)OC(C)(C)C)o1)c1nc2ccc(-c3cc(F)cc(Cl)c3)cc2s1 (stereo not drawn) [Example 153, tert-butyl (((5-((6-(3-chloro-5-fluorophenyl)-1,3-benzothiazol-2-yl)((2-methoxyethyl)sulfonyl)methyl)-1,3,4-oxadiazol-2-yl)methyl)sulfamoyl) carbamate]
4 | 0.025 | 0.054 | CC(C)C(O)C(=O)NCc1nnc(C(c2nc3ccc(-c4ccccc4)cc3s2)S(C)(=O)=O)o1 (stereo not drawn) [Example 154, 2-hydroxy-3-methyl-N-((5-((methylsulfonyl)(6-phenyl-1,3-benzothiazol-2-yl)methyl)-1,3,4-oxadiazol-2-yl)methyl)butanamide]
5 | 0.026 | 0.137 | CC(C)(C)[C@H](O)C(=O)NCc1nnc(C(c2nc3ccc(-c4ccccc4)cc3s2)S(C)(=O)=O)o1 (stereo partly drawn) [Example 155, (2S)-2-hydroxy-3,3-dimethyl-N-((5-((methylsulfonyl)(6-phenyl-1,3-benzothiazol-2-yl)methyl)-1,3,4-oxadiazol-2-yl)methyl)butanamide]
6 | 0.071 | 0.057 | CN(C)C(=O)O[C@H](C(=O)NCc1nnc(C(c2nc3ccc(-c4ccccc4)cc3s2)S(C)(=O)=O)o1)C(C)(C)C (stereo partly drawn) [Example 156, (1S)-2,2-dimethyl-1-(((5-((methylsulfonyl)(6-phenyl-1,3-benzothiazol-2-yl)methyl)-1,3,4-oxadiazol-2-yl)methyl)carbamoyl) propyl dimethylcarbamate]
7 | 0.034 | 0.223 | CCOCC(=O)NCc1nnc(C(c2nc3ccc(-c4ccccc4)cc3s2)S(C)(=O)=O)o1 (stereo not drawn) [Example 157, 2-ethoxy-N-((5-((methylsulfonyl)(6-phenyl-1,3-benzothiazol-2-yl)methyl)-1,3,4-oxadiazol-2-yl)methyl)acetamide]
8 | 0.021 | < 0.01 | Cn1cc(-c2cc3sc(C(c4nnc(CNS(N)(=O)=O)o4)S(=O)(=O)Cc4ccccc4)nc3cc2F)cn1 (stereo not drawn) [Example 158, N-((5-((benzylsulfonyl)(5-fluoro-6-(1-methyl-1H-pyrazol-4-yl)-1,3-benzothiazol-2-yl)methyl)-1,3,4-oxadiazol-2-yl)methyl) sulfamide]
9 | 0.014 | 0.013 | COc1cc2nc(C(c3nnc(CNS(=O)(=O)NC(=O)OC(C)(C)C)o3)S(C)(=O)=O)sc2cc1-c1cnn(C)c1 (stereo not drawn) [Example 159, 2-methyl-2-propanyl {[(5-{[5-methoxy-6-(1-methyl-1H-pyrazol-4-yl)-1,3-benzothiazol-2-yl](methylsulfonyl)methyl}-1,3,4-oxadiazol-2-yl)methyl]sulfamoyl}carbamate]
10 | 0.013 | < 0.01 | CS(=O)(=O)C(c1nnc(CC2SC(=O)NC2=O)o1)c1nc2cc(F)c(-c3ccccc3)cc2s1 (stereo not drawn) [Example 160, 5-((5-((5-fluoro-6-phenyl-1,3-benzothiazol-2-yl)(methylsulfonyl)methyl)-1,3,4-oxadiazol-2-yl)methyl)-1,3-thiazolidine-2,4-dione]
11 | < 0.01 | < 0.01 | CS(=O)(=O)C(c1nnc(CS(N)(=O)=O)o1)c1nc2c(F)cc(-c3ccccc3)cc2s1 (stereo not drawn) [Example 163, 1-(5-((4-fluoro-6-phenyl-1,3-benzothiazol-2-yl)(methylsulfonyl)methyl)-1,3,4-oxadiazol-2-yl)methanesulfonamide]

Continued, molecule first:

Row | Structure (SMILES) | IC50 [1] [µM] | IC50 [2] [µM]
12 | CC(C)(C)OC(=O)NS(=O)(=O)NCc1nnc(C(c2nc3ccc(-c4cc(F)cc(Cl)c4)cc3s2)S(=O)(=O)Cc2ccccc2)o1 (stereo not drawn) [Example 142, tert-butyl (((5-((benzylsulfonyl)(6-(3-chloro-5-fluorophenyl)-1,3-benzothiazol-2-yl)methyl)-1,3,4-oxadiazol-2-yl)methyl)sulfamoyl)carbamate] | < 0.01 | < 0.01
13 | NS(=O)(=O)NCc1nnc(C(c2nc3ccc(-c4cc(Cl)cc(Cl)c4)cc3s2)S(=O)(=O)Cc2ccccc2)o1 (stereo not drawn) [Example 143, N-((5-((benzylsulfonyl)(6-(3,5-dichlorophenyl)-1,3-benzothiazol-2-yl)methyl)-1,3,4-oxadiazol-2-yl)methyl) sulfamide] | < 0.01 | < 0.01
14 | NS(=O)(=O)NCc1nnc(C(c2nc3ccc(-c4cc(F)cc(Cl)c4)cc3s2)S(=O)(=O)Cc2ccccc2)o1 (stereo not drawn) [Example 144, N-((5-((benzylsulfonyl)(6-(3-chloro-5-fluorophenyl)-1,3-benzothiazol-2-yl)methyl)-1,3,4-oxadiazol-2-yl)methyl) sulfamide] | < 0.01 | < 0.01
15 | NS(=O)(=O)NCc1nnc(C(c2nc3ccc(-c4cc(F)nc(F)c4)cc3s2)S(=O)(=O)Cc2ccccc2)o1 (stereo not drawn) [Example 145, N-((5-((benzylsulfonyl)(6-(2,6-difluoro-4-pyridinyl)-1,3-benzothiazol-2-yl)methyl)-1,3,4-oxadiazol-2-yl)methyl)sulfamide] | 0.077 | < 0.01
16 | CN(C)C(=O)c1ccc(-c2ccc3nc(C(c4nnc(CNS(N)(=O)=O)o4)S(=O)(=O)Cc4ccccc4)sc3c2)cc1Cl (stereo not drawn) [Example 146, 4-(2-((benzylsulfonyl)(5-((sulfamoylamino)methyl)-1,3,4-oxadiazol-2-yl)methyl)-1,3-benzothiazol-6-yl)-2-chloro-N,N-dimethylbenzamide] | 0.391 | < 0.01
17 | CC(C)(C)OC(=O)NS(=O)(=O)NCc1nnc(C(c2nc3ccc(-c4ccc(C(=O)N5CCOCC5)c(Cl)c4)cc3s2)S(=O)(=O)Cc2ccccc2)o1 (stereo not drawn) [Example 147, 2-methyl-2-propanyl [({5-[(benzylsulfonyl){6-[3-chloro-4-(4-morpholinylcarbonyl)phenyl]-1,3-benzothiazol-2-yl}methyl]-1,3,4-oxadiazol-2-yl}methyl)sulfamoyl] carbamate] | 0.626 | 0.017
18 | NS(=O)(=O)NCc1nnc(C(c2nc3ccc(-c4ccc(Cl)c(Cl)c4)cc3s2)S(=O)(=O)Cc2ccccc2)o1 (stereo not drawn) [Example 148, N-((5-((benzylsulfonyl)(6-(3,4-dichlorophenyl)-1,3-benzothiazol-2-yl)methyl)-1,3,4-oxadiazol-2-yl)methyl)sulfamide] | < 0.01 | < 0.01
19 | NS(=O)(=O)NCc1nnc(C(c2nc3ccc(-c4ccc(C(=O)N5CCOCC5)c(Cl)c4)cc3s2)S(=O)(=O)Cc2ccccc2)o1 (stereo not drawn) [Example 149, N-((5-((benzylsulfonyl)(6-(3-chloro-4-(4-morpholinylcarbonyl)phenyl)-1,3-benzothiazol-2-yl)methyl)-1,3,4-oxadiazol-2-yl)methyl)sulfamide] | 0.121 | < 0.01
20 | COC(=O)CCS(=O)(=O)C(c1nnc(CC2SC(=O)NC2=O)o1)c1nc2cc(F)c(-c3ccccc3)cc2s1 (stereo not drawn) [Example 161, methyl 3-(((5-((2,4-dioxo-1,3-thiazolidin-5-yl)methyl)-1,3,4-oxadiazol-2-yl)(5-fluoro-6-phenyl-1,3-benzothiazol-2-yl)methyl)sulfonyl)propanoate] | < 0.01 | < 0.01
21 | O=C1NC(=O)C(Cc2nnc(C(c3nc4ccc(-c5ccccc5)c(F)c4s3)S(=O)(=O)Cc3ccccc3)o2)S1 (stereo not drawn) [Example 162, 5-((5-((benzylsulfonyl)(7-fluoro-6-phenyl-1,3-benzothiazol-2-yl)methyl)-1,3,4-oxadiazol-2-yl)methyl)-1,3-thiazolidine-2,4-dione] | < 0.01 | < 0.01
